Tested on: PARP PARylation in HeLa cells
Assay: PARylation assay in HeLa cells
Assay type: cell-based
Settings: H2O2-provoked DNA damage

Molecule “2-phenyl-2,3,5,10- tetrahydro- [1,2]diazepino[3,4, 5,6-def]carbazol- 6(1H)-one [Compound 5]” has an EC50 of 10.1 nM.
`CC1CC2=NNC(=O)c3cccc4[nH]c(c2c34)C1` (stereo not drawn) [Compound 3, 2-methyl-2,3,5,10-tetrahydro-[1,2]diazepino[3,4,5,6-def]carbazol-6(1H)-one] gave an EC50 (Homo sapiens) of 4.6 nM.
For `CC1(C)CCc2[nH]c3cccc4c3c2C1=NNC4=O` [Compound 4, 3,3-dimethyl-2,3,5,10-tetrahydro-[1,2]diazepino[3,4,5,6-def]carbazol-6(1H)-one], the EC50 (Homo sapiens) was 46.7 nM.
`CC(C)C1CC2=NNC(=O)c3cccc4[nH]c(c2c34)C1` (stereo not drawn) [Compound 6, 2-isopropyl-2,3,5,10-tetrahydro-[1,2]diazepino[3,4,5,6-def]carbazol-6(1H)-one] showed an EC50 (Homo sapiens) of 3.9 nM.
`CN(C)c1ccc(C2CC3=NNC(=O)c4cc(F)cc5[nH]c(c3c45)C2)cc1` (stereo not drawn) [Compound 12, 2-(4-(dimethylamino)phe-nyl)-8-fluoro-2,3,5,10-tetrahydro-[1,2]diazepino[3,4,5,6-def]carbazol-6(1H)-one] was tested, and the EC50 was 26.6 nM.
In the case of `CN(C)c1ccc(C2CC3=NNC(=O)c4cccc5[nH]c(c3c45)C2)cc1` (stereo not drawn) [Compound 13, 2-(4-(dimethylamino)phe-nyl)-2,3,5,10-tetrahydro-[1,2]diazepino[3,4,5,6-def]carbazol-6(1H)-one], the EC50 (Homo sapiens) is reported as 77.6 nM.
`O=C1NN=C2CN(C(=O)OCc3ccccc3)Cc3[nH]c4cccc1c4c32` [Compound 20, Benzyl 8-oxo-3,4,8,9-tetrahydro-2,4,9,10-tetraazacyclohepta[def]fluorene-2(1H)-carboxylate] showed an EC50 (Homo sapiens) of 7.3 nM.
With `O=C1NN=C2CN(C(=O)OCc3ccccc3)Cc3[nH]c4cc(F)cc1c4c32` [Compound 21, Benzyl 6-fluoro-8-oxo-3,4,8,9-tetrahydro-2,4,9,10-tetraazacyclohepta[def]fluorene-2(1H)-carboxylate] the EC50 (Homo sapiens) was 14 nM.
`CN1N=C2CC(C)(C)Cc3c2c2c(cccc2n3C)C1=O` [Compound 25, 2,2,5,10-tetramethyl-2,3,5,10-tetrahydro-[1,2]diazepino[3,4,5,6-def]carbazol-6(1H)-one] showed an EC50 (Homo sapiens) greater than 1000 nM.
`CC1(C)CC2=NNC(=O)c3cc(F)cc4[nH]c(c2c34)C1=O` [Compound 26, 8-Fluoro-2,2-dimethyl-2,3-dihydro-[1,2]diazepino[3,4,5,6-def]carbazole-1,6(5H,10H)-dione] was tested, and the EC50 (Homo sapiens) was 4.5 nM.
For `CN(C)CCn1c2c3c4c(cccc41)C(=O)NN=C3CCC2` [Compound 37, 10-(2-(dimethylamino)ethyl)-2,3,5,10-tetrahydro-[1,2]diazepino[3,4,5,6-def]carbazol-6(1H)-one], the EC50 (Homo sapiens) was 22 nM.
With `CN1CC2=NNC(=O)c3cccc4[nH]c(c2c34)C1` [Compound 44, 2-Methyl-2,3,4,9-tetrahydro-2,4,9,10-tetraazacyclohepta[def]fluoren-8(1H)-one] the EC50 (Homo sapiens) was 24 nM.
`CC(C)N1CC2=NNC(=O)c3cccc4[nH]c(c2c34)C1` [Compound 45, 2-Isopropyl-2,3,4,9-tetrahydro-2,4,9,10-tetraazacyclohepta[def]fluoren-8(1H)-one] was tested, and the EC50 (Homo sapiens) was 3.8 nM.
In the case of `O=C1NN=C2CN(C(=O)C3CC3)Cc3[nH]c4cccc1c4c32` [Compound 47, 2-(cyclopropanecarbonyl)-2,3,4,9-tetrahydro-2,4,9,10-tetraazacyclohepta[def]fluoren-8(1H)-one], the EC50 (Homo sapiens) is reported as 6.9 nM.
`CN(C)CCn1c2c3c4c(cccc41)C(=O)NN=C3CN(C(=O)C1CC1)C2` [Compound 48, 2-(cyclopropanecarbonyl)-4-(2-(dimethylamino)ethyl)-2,3,4,9-tetrahydro-2,4,9,10-tetraazacyclohepta[def]fluoren-8(1H)-one] showed an EC50 (Homo sapiens) of 6 nM.
`CN(C)CCn1c2c3c4c(cc(F)cc41)C(=O)NN=C3CN(C(=O)C1CC1)C2` [Compound 50, 2-(Cyclopropanecarbonyl)-4-(2-(dimethylamino)ethyl)-6-fluoro-2,3,4,9-tetrahydro-2,4,9,10-tetraazacyclohepta[def]fluoren-8(1H)-one] was tested, and the EC50 (Homo sapiens) was 21 nM.
`CC(C)(C)C(=O)N1CC2=NNC(=O)c3cccc4[nH]c(c2c34)C1` [Compound 51, 2-Pivaloyl-2,3,4,9-tetrahydro-2,4,9,10-tetraazacyclohepta[def]fluoren-8(1H)-one] was tested, and the EC50 (Homo sapiens) was 9.6 nM.
`CC(C)(C)C(=O)N1CC2=NNC(=O)c3cc(F)cc4[nH]c(c2c34)C1` [Compound 52, 6-Fluoro-2-pivaloyl-2,3,4,9-tetrahydro-2,4,9,10-tetraazacyclohepta[def]fluoren-8(1H)-one] was tested, and the EC50 (Homo sapiens) was 13.5 nM.
Molecule `O=C1NN=C2CN(C3CCCCC3)Cc3[nH]c4cccc1c4c32` [Compound 53, 2-Cyclohexyl-2,3,4,9-tetrahydro-2,4,9, 10-tetraazacyclohepta[def]fluoren-8(1H)-one] has an EC50 (Homo sapiens) of 20 nM.
`CC(C)(C)CCN1CC2=NNC(=O)c3cccc4[nH]c(c2c34)C1` [Compound 54, 2-(3,3-dimethylbutyl)-2,3,4,9-tetrahydro-2,4,9,10-tetraazayclohepta[def]fluoren-8(1H)-one] was tested, and the EC50 (Homo sapiens) was 23 nM.
Molecule `CCCN1CC2=NNC(=O)c3cccc4[nH]c(c2c34)C1` [Compound 56, 2-Propyl-2,3,4,9-tetrahydro-2,4,9,10-tetraazacyclohepta[def]fluoren-8(1H)-one] has an EC50 (Homo sapiens) of 6.4 nM.
`CCCCN1CC2=NNC(=O)c3cc(F)cc4[nH]c(c2c34)C1` [Compound 59, 2-Butyl-6-fluoro-2,3,4,9-tetrahydro-2,4,9,10-tetraazacyclohepta[def]fluoren-8(1H)-one] gave an EC50 (Homo sapiens) of 2 nM.
Work on `CN(C)CCN1CC2=NNC(=O)c3cccc4[nH]c(c2c34)C1` [Compound 60, 2-(2-(dimethylamino)ethyl)-2,3,4,9-tetrahydro-2,4,9,10-tetraazacyclohepta[def]fluoren-8(1H)-one] yielded an EC50 (Homo sapiens) of 68.5 nM.
For `CN(C)CCN1CC2=NNC(=O)c3cc(F)cc4[nH]c(c2c34)C1` [Compound 61, 2-(2-(Dimethylamino)ethyl)-6-fluoro-2,3,4,9-tetrahydro-2,4,9,10-tetraazacyclohepta[def]fluoren-8(1H)-one], the EC50 (Homo sapiens) was 42 nM.
Molecule `CC(C)(C)OC(=O)N[C@@H](Cc1ccccc1)C(=O)N1CC2=NNC(=O)c3cccc4[nH]c(c2c34)C1` [Compound 63, (S)-tert-butyl (1-oxo-1-(8-oxo-8,9-dihydro-2,4,9,10-tetraazacyclohepta[def]fluoren-2(1H,3H,4H)-yl)-3-phenylpropan-2-yl)carbamate] has an EC50 (Homo sapiens) of 235 nM.
For `CC1(C)CC2=NNC(=O)c3cccc4c3c2c(n4CCO)C1` [Compound 67, 10-(2-hydroxyethyl)-2,2-dimethyl-2,3,5,10-tetrahydro-[1,2]diazepino[3,4,5,6-def]carbazol-6(1H)-one], the EC50 (Homo sapiens) was 247 nM.
With `C[C@]12CCCN1CC1=NNC(=O)c3cc(F)cc4[nH]c2c1c34` [Compound 69] the EC50 (Homo sapiens) was 0.6 nM.

From patent publication US10501467B2, “Fused tetra or penta-cyclic dihydrodiazepinocarbazolones as PARP inhibitors” (BeiGene, Ltd., priority 2011, dated 2019)
